This passage reports inhibition results from US10106556B2, “Heterocyclic compound” (TAKEDA PHARMACEUTICAL COMPANY LIMITED, priority 2015, dated 2018).

Molecules are shown by their SMILES.

This assay addresses T1, His-hMAGL (recombinant polyhistidine tagged human MAGL protein) (Homo sapiens, UniProt Q99685).
T1 construct: made in house; host or cells: E. coli BL21(DE3)
T1 sequence (Q99685 1-303): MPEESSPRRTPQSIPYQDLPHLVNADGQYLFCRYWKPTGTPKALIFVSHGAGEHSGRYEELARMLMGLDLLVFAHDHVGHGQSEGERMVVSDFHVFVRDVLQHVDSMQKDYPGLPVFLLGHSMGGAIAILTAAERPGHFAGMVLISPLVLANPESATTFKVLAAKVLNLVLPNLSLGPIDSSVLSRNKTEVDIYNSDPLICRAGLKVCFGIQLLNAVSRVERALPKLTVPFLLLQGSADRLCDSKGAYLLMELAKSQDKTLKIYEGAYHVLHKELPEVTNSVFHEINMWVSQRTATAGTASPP
Description: Measurement of MAGL inhibitory activity (arachidonic acid production from 2-arachidonylglycerol, RapidFire-mass spectrometry). In kind it is biochemical. Particulars: MAGL inhibitory rate at 10 μM test compound; 60 min preincubation with His-hMAGL, 2-arachidonylglycerol substrate, 10 min reaction at room temperature. The essentials:
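Inhibition (%) was derived from arachidonic acid levels relative to enzyme-free and compound-free groups. Product was measured by online C4 solid-phase extraction and triple-quadrupole MS in negative SRM mode, corrected by arachidonic acid-d8 (3 μM in the acetonitrile added). Substrate was 2-arachidonylglycerol; enzyme was His-tagged recombinant human MAGL.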
Consider `O=C1COc2cc(F)c(C(=O)N3CC(COc4ccc5ccncc5c4)C3)cc2N1` [Example 172, 7-fluoro-6-((3-((isoquinolin-7-yloxy)methyl)azetidin-1-yl)carbonyl)-2H-1,4-benzoxazin-3(4H)-one], for which the inhibition at 10 µM was found to be 100%.

Take `O=C1COc2cc(F)c(C(=O)N3CC(OCc4ccc(C(F)(F)F)c(F)c4)C3)cc2N1` [Example 351, 7-fluoro-6-((3-((3-fluoro-4-(trifluoromethyl)benzyl)oxy)azetidin-1-yl)carbonyl)-2H-1,4-benzoxazin-3(4H)-one]: the inhibition at 10 µM came to 99%. Take `O=C1COc2cc(F)c(C(=O)N3CC(F)(COc4ccc(F)cc4Cl)C3)cc2N1` [Example 96, 6-((3-((2-chloro-4-fluorophenoxy)methyl)-3-fluoroazetidin-1-yl)carbonyl)-7-fluoro-2H-1,4-benzoxazin-3(4H)-one]: the inhibition at 10 µM is 100%.

Turning to `C=C(C)c1ccc(OCC2CCN(C(=O)c3cc4c(cc3F)OCC(=O)N4)CC2)c(Cl)c1` [Example 82, 6-((4-((2-chloro-4-(prop-1-en-2-yl)phenoxy)methyl)piperidin-1-yl)carbonyl)-7-fluoro-2H-1,4-benzoxazin-3(4H)-one], the inhibition at 10 µM came out at 101%. For the compound `O=C1COc2cc(F)c(C(=O)N3CC(COc4ccc(Cl)cc4-c4ccc(F)nc4)C3)cc2N1` [Example 204, 6-((3-((4-chloro-2-(6-fluoropyridin-3-yl)phenoxy)methyl)azetidin-1-yl)carbonyl)-7-fluoro-2H-1,4-benzoxazin-3(4H)-one], the inhibition at 10 µM amounted to 100%. Take `O=C1COc2ccc(C(=O)N3CCC(COc4ccc5ccccc5c4)CC3)cc2N1` [Example 60, 6-((4-((2-naphthyloxy)methyl)piperidin-1-yl)carbonyl)-2H-1,4-benzoxazin-3(4H)-one]: the inhibition at 10 µM was determined as 92%.

Consider `O=C1COc2cc(F)c(C(=O)N3CC(COc4ccc(OC(F)(F)F)cc4)C3)cc2N1` [Example 143, 7-fluoro-6-((3-((4-(trifluoromethoxy)phenoxy)methyl)azetidin-1-yl)carbonyl)-2H-1,4-benzoxazin-3(4H)-one], for which the inhibition at 10 µM turned out to be 100%. Regarding `O=C1COc2cc(F)c(C(=O)N3CC(COc4cccc5scnc45)C3)cc2N1` [Example 105, 6-((3-((1,3-benzothiazol-4-yloxy)methyl)azetidin-1-yl)carbonyl)-7-fluoro-2H-1,4-benzoxazin-3(4H)-one], the inhibition at 10 µM was 97%.

`Cc1ncccc1-c1cc(Cl)ccc1OCC1CN(C(=O)c2cc3c(cc2F)OCC(=O)N3)C1` [Example 191, 6-((3-((4-chloro-2-(2-methylpyridin-3-yl)phenoxy)methyl)azetidin-1-yl)carbonyl)-7-fluoro-2H-1,4-benzoxazin-3(4H)-one]: the inhibition at 10 µM came to 102%.

With `Cc1cc(-c2ccc(OCC3CN(C(=O)c4cc5c(cc4F)OCC(=O)N5)C3)c(F)c2)n(C)n1` [Example 259, 6-((3-((4-(1,3-dimethyl-1H-pyrazol-5-yl)-2-fluorophenoxy)methyl)azetidin-1-yl)carbonyl)-7-fluoro-2H-1,4-benzoxazin-3(4H)-one], the inhibition at 10 µM came to 100%. Then `Cc1nn(C)cc1-c1cc(Cl)ccc1OCC1CN(C(=O)c2cc3c(cc2F)OCC(=O)N3)C1` [Example 265, 6-((3-((4-chloro-2-(1,3-dimethyl-1H-pyrazol-4-yl)phenoxy)methyl)azetidin-1-yl)carbonyl)-7-fluoro-2H-1,4-benzoxazin-3(4H)-one], with 99%.

As to `CC(Oc1ccc(F)c(F)c1)C1CN(C(=O)c2cc3c(cc2F)OCC(=O)N3)C1` (stereo not drawn) [Example 304, 6-((3-(1-(3,4-difluorophenoxy)ethyl)azetidin-1-yl)carbonyl)-7-fluoro-2H-1,4-benzoxazin-3(4H)-one], the inhibition at 10 µM turned out to be 99%. On to `O=C1COc2cc(F)c(C(=O)N3CC(COc4ccc(N5CC(F)C5)cc4F)C3)cc2N1` [Example 292, 7-fluoro-6-((3-((2-fluoro-4-(3-fluoroazetidin-1-yl)phenoxy)methyl)azetidin-1-yl)carbonyl)-2H-1,4-benzoxazin-3(4H)-one], for which the inhibition at 10 µM was found to be 100%. Then `N#Cc1cc(OCC2CN(C(=O)c3cc4c(cc3F)OCC(=O)N4)C2)ccc1Cl` [Example 133, 2-chloro-5-((1-((7-fluoro-3-oxo-3,4-dihydro-2H-1,4-benzoxazin-6-yl)carbonyl)azetidin-3-yl)methoxy)benzonitrile], with 98%; and `O=C1COc2cc(F)c(C(=O)N3CCC(COc4ccc(-c5ccccc5)cc4)CC3)cc2N1` [Example 149, 6-((4-((biphenyl-4-yloxy)methyl)piperidin-1-yl)carbonyl)-7-fluoro-2H-1,4-benzoxazin-3(4H)-one], with 85%; and `O=C1COc2cc(F)c(C(=O)N3CC(COc4ccc(-c5ccc(C(F)(F)F)nc5)cc4F)C3)cc2N1` [Example 256, 7-fluoro-6-((3-((2-fluoro-4-(6-(trifluoromethyl)pyridin-3-yl)phenoxy)methyl)azetidin-1-yl)carbonyl)-2H-1,4-benzoxazin-3(4H)-one], with 98%. Then `Cn1ccc(-c2cc(Cl)ccc2OCC2CN(C(=O)c3cc4c(cc3F)OCC(=O)N4)C2)n1` [Example 216, 6-((3-((4-chloro-2-(1-methyl-1H-pyrazol-3-yl)phenoxy)methyl)azetidin-1-yl)carbonyl)-7-fluoro-2H-1,4-benzoxazin-3(4H)-one], with 97%.

Consider `Cc1cc(-c2cc(Cl)ccc2OCC2CN(C(=O)c3cc4c(cc3F)OCC(=O)N4)C2)nn1C` [Example 217, 6-((3-((4-chloro-2-(1,5-dimethyl-1H-pyrazol-3-yl)phenoxy)methyl)azetidin-1-yl)carbonyl)-7-fluoro-2H-1,4-benzoxazin-3(4H)-one], for which the inhibition at 10 µM was determined as 104%. The value for `Cc1cccc(-c2cc(Cl)ccc2OCC2CN(C(=O)c3cc4c(cc3F)OCC(=O)N4)C2)n1` [Example 197, 6-((3-((4-chloro-2-(6-methylpyridin-2-yl)phenoxy)methyl)azetidin-1-yl)carbonyl)-7-fluoro-2H-1,4-benzoxazin-3(4H)-one] was 104%. Then `Cc1ccncc1-c1ccc(OCC2CN(C(=O)c3cc4c(cc3F)OCC(=O)N4)C2)c(F)c1` [Example 237, 7-fluoro-6-((3-((2-fluoro-4-(4-methylpyridin-3-yl)phenoxy)methyl)azetidin-1-yl)carbonyl)-2H-1,4-benzoxazin-3(4H)-one], with 99%; and `Cc1ccc(-c2ccc(OCC3CN(C(=O)c4cc5c(cc4F)OCC(=O)N5)C3)c(F)c2)cn1` [Example 263, 7-fluoro-6-((3-((2-fluoro-4-(6-methylpyridin-3-yl)phenoxy)methyl)azetidin-1-yl)carbonyl)-2H-1,4-benzoxazin-3(4H)-one], with 97%; and `O=C1COc2cc(F)c(C(=O)N3CC(COc4cc(F)cc(Cl)c4)C3)cc2N1` [Example 134, 6-((3-((3-chloro-5-fluorophenoxy)methyl)azetidin-1-yl)carbonyl)-7-fluoro-2H-1,4-benzoxazin-3(4H)-one], with 102%. Then `O=C1COc2ccc(C(=O)N3CCC(COc4cccc(C(F)(F)F)c4)CC3)cc2N1` [Example 57, 6-((4-((3-(trifluoromethyl)phenoxy)methyl)piperidin-1-yl)carbonyl)-2H-1,4-benzoxazin-3(4H)-one], with 99%; and `N#Cc1ccc(OCC2CCN(C(=O)c3ccc4c(c3)NC(=O)CO4)CC2)c(Cl)c1` [Example 52, 3-chloro-4-((1-((3-oxo-3,4-dihydro-2H-1,4-benzoxazin-6-yl)carbonyl)piperidin-4-yl)methoxy)benzonitrile], with 102%; and `O=C1Cc2ccc(C(=O)N3CCC(COc4ccccc4Cl)CC3)cc2N1` [Example 28], with 100%. Consider `O=C1COc2cc(F)c(C(=O)N3CC(COCc4ccccc4Cl)C3)cc2N1` [Example 148, 6-((3-(((2-chlorobenzyl)oxy)methyl)azetidin-1-yl)carbonyl)-7-fluoro-2H-1,4-benzoxazin-3(4H)-one], for which the inhibition at 10 µM turned out to be 102%. The value for `O=C1COc2cc(F)c(C(=O)N3CC(COc4ccc5ncccc5c4)C3)cc2N1` [Example 170, 7-fluoro-6-((3-((quinolin-6-yloxy)methyl)azetidin-1-yl)carbonyl)-2H-1,4-benzoxazin-3(4H)-one] was 104%. The value for `Cc1ccc(OCC2CN(C(=O)c3cc4c(cc3F)OCC(=O)N4)C2)c(F)c1` [Example 164, 7-fluoro-6-((3-((2-fluoro-4-methylphenoxy)methyl)azetidin-1-yl)carbonyl)-2H-1,4-benzoxazin-3(4H)-one] was 102%. Then `O=C1COc2ccc(C(=O)N3CCC(COc4cccc(OC(F)(F)F)c4)CC3)cc2N1` [Example 54, 6-((4-((3-(trifluoromethoxy)phenoxy)methyl)piperidin-1-yl)carbonyl)-2H-1,4-benzoxazin-3(4H)-one], with 98%; and `COc1cc2c(cc1C(=O)N1CCC(COc3ccc(F)cc3Cl)CC1)NC(=O)CO2` [Example 97, 6-((4-((2-chloro-4-fluorophenoxy)methyl)piperidin-1-yl)carbonyl)-7-methoxy-2H-1,4-benzoxazin-3(4H)-one], with 100%.
